Experimental data from patent US10519099B2, “Cystobactamides” (priority 2014, dated 2019).
Converted amounts (≈) assume the structure as drawn. Where two headings read alike, the source gives them in different places.

Key:
[1] = test system: Acinetobacter baumannii DSM-30008; test: MIC microdilution, A. baumannii DSM-30008; type: cell-based; details: Acinetobacter baumannii, DSM30008
Description: (§1) Indicator strains used in susceptibility assays were either part of our strain collection or purchased from the German Collection of Microorgansims and Cell Cultures (DSMZ) or from the American Type Culture Collection (ATCC). E. coli strain WT and corresponding E. coli mutants were kindly provided by Prof. Dr. P. Heisig, Pharmaceutical Biology and Microbiology, University of Hamburg. E. coli strains JW0401-1 (WT) and Δtsx were obtained from the CGSC collection.
(§2) MIC values were determined in standardized microdilution assays. Overnight cultures were diluted in the appropriate growth medium to achieve an inoculum of 10^4-10^6 cfu/mL. Yeasts were grown in Myc medium (1% phytone peptone, 1% glucose, 50 mM HEPES, pH 7.0), S. pneumonia and Enterococcus spp. in tryptic soy broth (TSB: 1.7% peptone casein, 0.3% peptone soymeal, 0.25% glucose, 0.5% NaCl, 0.25% K2HPO4; pH 7.3); M. smegmatis in Middlebrook 7H9 medium supplemented with 10% Middlebrook ADC enrichment and 2 ml/I glycerol). All other listed bacteria were grown in Müller-Hinton broth (0.2% beef infusion solids, 1.75% casein hydrolysate, 0.15% starch, pH 7.4). Cystobactamides and reference drugs were added directly to the cultures in sterile 96-well plates as duplicates and serial dilutions were prepared. Microorganisms were grown on a microplate shaker (750 rpm, 30-37° C., 18-48 h), except S. pneumonia, which was grown at non-shaking conditions (37° C., 5% CO2, 18 h). Growth inhibition was assessed by visual inspection and the MIC was defined as the lowest concentration of compound that inhibited visible growth.

[2] = test system: Citrobacter freundii DSM-30039; test: MIC microdilution, C. freundii DSM-30039; type: cell-based; details: Citrobacter freundii, DSM30039
Description: as §1, §2

E. coli WT = test: MIC microdilution, E. coli WT; type: cell-based, Escherichia coli; details: Escherichia coli
Description: as §1, §2

[3] = test system: E. coli WT-3 [gyrA(S83L, D87G)]; test: MIC microdilution, E. coli WT-3 [gyrA(S83L, D87G)]; type: cell-based, Escherichia coli; details: Escherichia coli
Description: as §1, §2

[4] = test system: P. aeruginosa DSM-24600 (ESBL); test: MIC microdilution, P. aeruginosa DSM-24600 (ESBL); type: cell-based, Pseudomonas aeruginosa; details: Pseudomonas aeruginosa, DSM24600
Description: as §1, §2

[5] = test system: Proteus vulgaris DSM-2140; test: MIC microdilution, P. vulgaris DSM-2140; type: cell-based; details: Proteus vulgaris, DSM2140
Description: as §1, §2

[6] = test system: Burkholderia cenocepacia DSM-16553; test: MIC microdilution, Burkholderia cenocepacia DSM-16553; type: cell-based; details: DSM16553, larger panel, read-out: MIC Burkholderia cenocepacia DSM-16553
Description: as §1
as §2, with “Cystobactamides and reference drugs were added directly to the cultures in sterile 96-well plates as duplicates and serial dilutions were prepared. Microorganisms were grown on a microplate shaker (750 rpm, 30-37° C., 18-48 h), except S. pneumonia, which was grown at non-shaking conditions (37° C., 5% CO2, 18 h).” left out

[7] = test system: Escherichia coli WT-3.2 [gyrA(D87G)]; test: MIC microdilution, E. coli WT-3.2 [gyrA(D87G)]; type: cell-based; details: read-out: MIC Escherichia coli WT-3.2 [gyrA(D87G)]
Description: as §1
as §2, with “Cystobactamides and reference drugs were added directly to the cultures in sterile 96-well plates as duplicates and serial dilutions were prepared. Microorganisms were grown on a microplate shaker (750 rpm, 30-37° C., 18-48 h), except S. pneumonia, which was grown at non-shaking conditions (37° C., 5% CO2, 18 h).” left out

[8] = test system: Escherichia coli MI-4 [gyrA(S83L), parC(S80I)]; test: MIC microdilution, E. coli MI-4 [gyrA(S83L), parC(S80I)]; type: cell-based; details: read-out: MIC Escherichia coli MI-4 [gyrA(S83L), parC(S80I)]
Description: as §1
as §2, with “Cystobactamides and reference drugs were added directly to the cultures in sterile 96-well plates as duplicates and serial dilutions were prepared. Microorganisms were grown on a microplate shaker (750 rpm, 30-37° C., 18-48 h), except S. pneumonia, which was grown at non-shaking conditions (37° C., 5% CO2, 18 h).” left out

[9] = test system: Escherichia coli DSM-12242 (NAL^R); test: MIC microdilution, E. coli DSM-12242 (NAL^R); type: cell-based; details: DSM12242, read-out: MIC Escherichia coli DSM-12242 (NAL^R)
Description: as §1
as §2, with “Cystobactamides and reference drugs were added directly to the cultures in sterile 96-well plates as duplicates and serial dilutions were prepared. Microorganisms were grown on a microplate shaker (750 rpm, 30-37° C., 18-48 h), except S. pneumonia, which was grown at non-shaking conditions (37° C., 5% CO2, 18 h).” left out

[10] = test system: Escherichia coli ATCC35218; test: MIC microdilution, E. coli ATCC35218; type: cell-based; details: ATCC35218, larger panel, read-out: MIC Escherichia coli ATCC35218
Description: as §1
as §2, with “Cystobactamides and reference drugs were added directly to the cultures in sterile 96-well plates as duplicates and serial dilutions were prepared. Microorganisms were grown on a microplate shaker (750 rpm, 30-37° C., 18-48 h), except S. pneumonia, which was grown at non-shaking conditions (37° C., 5% CO2, 18 h).” left out

[11] = test system: Escherichia coli ATCC25922; test: MIC microdilution, E. coli ATCC25922; type: cell-based; details: ATCC25922, larger panel, read-out: MIC Escherichia coli ATCC25922
Description: as §1
as §2, with “Cystobactamides and reference drugs were added directly to the cultures in sterile 96-well plates as duplicates and serial dilutions were prepared. Microorganisms were grown on a microplate shaker (750 rpm, 30-37° C., 18-48 h), except S. pneumonia, which was grown at non-shaking conditions (37° C., 5% CO2, 18 h).” left out

[12] = test system: Klebsiella pneumoniae DSM-30104; test: MIC microdilution, Klebsiella pneumoniae DSM-30104; type: cell-based; details: DSM30104, larger panel, read-out: MIC Klebsiella pneumoniae DSM-30104
Description: as §1
as §2, with “Cystobactamides and reference drugs were added directly to the cultures in sterile 96-well plates as duplicates and serial dilutions were prepared. Microorganisms were grown on a microplate shaker (750 rpm, 30-37° C., 18-48 h), except S. pneumonia, which was grown at non-shaking conditions (37° C., 5% CO2, 18 h).” left out

[13] = test system: Pseudomonas aeruginosa PA14; test: MIC microdilution, P. aeruginosa PA14; type: cell-based; details: Pseudomonas aeruginosa, PA14; larger panel; read-out: MIC Pseudomonas aeruginosa PA14
Description: as §1, §2

[14] = test system: Pseudomonas aeruginosa DSM-24599; test: MIC microdilution, P. aeruginosa DSM-24599; type: cell-based; details: Pseudomonas aeruginosa, DSM24599; larger panel; read-out: MIC Pseudomonas aeruginosa DSM-24599
Description: as §1, §2

[15] = test system: Pseudomonas aeruginosa DSM-46316 (ESBL); test: MIC microdilution, P. aeruginosa DSM-46316 (ESBL); type: cell-based; details: Pseudomonas aeruginosa, DSM46316; larger panel; read-out: MIC Pseudomonas aeruginosa DSM-46316 (ESBL)
Description: as §1, §2

[16] = test system: Serratia marcescens DSM-30121; test: MIC microdilution, Serratia marcescens DSM-30121; type: cell-based; details: Serratia marcescens, DSM30121; larger panel; read-out: MIC Serratia marcescens DSM-30121
Description: as §1, §2

Bacillus subtilis DSM-10 = test: MIC microdilution, Bacillus subtilis DSM-10; type: cell-based; details: DSM10, larger panel, read-out: MIC Bacillus subtilis DSM-10
Description: as §1
as §2, with “Cystobactamides and reference drugs were added directly to the cultures in sterile 96-well plates as duplicates and serial dilutions were prepared. Microorganisms were grown on a microplate shaker (750 rpm, 30-37° C., 18-48 h), except S. pneumonia, which was grown at non-shaking conditions (37° C., 5% CO2, 18 h).” left out

[17] = test system: Enterococcus faecium DSM-20477; test: MIC microdilution, Enterococcus faecium DSM-20477; type: cell-based; details: Enterococcus faecium, DSM20477; larger panel; read-out: MIC Enterococcus faecium DSM-20477
Description: as §1, §2

[18] = test system: Micrococcus luteus DSM-1790; test: MIC microdilution, Micrococcus luteus DSM-1790; type: cell-based; details: DSM1790, larger panel, read-out: MIC Micrococcus luteus DSM-1790
Description: as §1
as §2, with “Cystobactamides and reference drugs were added directly to the cultures in sterile 96-well plates as duplicates and serial dilutions were prepared. Microorganisms were grown on a microplate shaker (750 rpm, 30-37° C., 18-48 h), except S. pneumonia, which was grown at non-shaking conditions (37° C., 5% CO2, 18 h).” left out

[19] = test system: Staphylococcus epidermidis DSM-28765; test: MIC microdilution, Staphylococcus epidermidis DSM-28765; type: cell-based; details: Staphylococcus epidermidis, DSM28765; larger panel; read-out: MIC Staphylococcus epidermidis DSM-28765
Description: as §1, §2

[20] = test system: Streptococcus pneumoniae DSM-20566; test: MIC microdilution, Streptococcus pneumoniae DSM-20566; type: cell-based; details: DSM20566, larger panel, read-out: MIC Streptococcus pneumoniae DSM-20566
Description: as §1
as §2, with “Cystobactamides and reference drugs were added directly to the cultures in sterile 96-well plates as duplicates and serial dilutions were prepared. Microorganisms were grown on a microplate shaker (750 rpm, 30-37° C., 18-48 h), except S. pneumonia, which was grown at non-shaking conditions (37° C., 5% CO2, 18 h).” left out

Pichia anomala DSM-6766 = test: MIC microdilution, Pichia anomala DSM-6766; type: cell-based; details: Hansenula anomala, DSM6766; larger panel; read-out: MIC Pichia anomala DSM-6766
Description: as §1
as §2, with “Cystobactamides and reference drugs were added directly to the cultures in sterile 96-well plates as duplicates and serial dilutions were prepared. Microorganisms were grown on a microplate shaker (750 rpm, 30-37° C., 18-48 h), except S. pneumonia, which was grown at non-shaking conditions (37° C., 5% CO2, 18 h).” left out

SMILES: O=C(O)c1cn(C2CC2)c2cc(N3CCNCC3)c(F)cc2c1=O [CP, Ciprofloxacin, reference compound]
- MIC ([1]; Gram-negative set, read-out: MIC A. baumannii DSM-30008): 0.8 µg/mL (≈ 2.41 µM)
- MIC ([1]; larger panel, read-out: MIC Acinetobacter baumannii DSM-30008): 0.2 to 0.4 µg/mL (≈ 0.604 to 1.21 µM)
- MIC ([2]; Gram-negative set, read-out: MIC C. freundii DSM-30039): 0.003 µg/mL (≈ 0.00905 µM)
- MIC ([2]; larger panel, read-out: MIC Citrobacter freundii DSM-30039): 0.003 µg/mL (≈ 0.00905 µM)
- MIC (E. coli WT; Gram-negative set, read-out: MIC E. coli WT): 0.013 µg/mL (≈ 0.0392 µM)
- MIC (E. coli WT; larger panel, read-out: MIC Escherichia coli WT): 0.013 µg/mL (≈ 0.0392 µM)
- MIC ([3]; read-out: MIC E. coli WT-3 [gyrA(S83L, D87G)]): 0.8 µg/mL (≈ 2.41 µM)
- MIC ([3]; read-out: MIC Escherichia coli WT-3 [gyrA(S83L, D87G)]): 0.8 to 1.6 µg/mL (≈ 2.41 to 4.83 µM)
- MIC ([4]; Gram-negative set, read-out: MIC P. aeruginosa DSM-24600 (ESBL)): 3.2 µg/mL (≈ 9.66 µM)
- MIC ([4]; larger panel, read-out: MIC Pseudomonas aeruginosa DSM-24600 (ESBL)): 3.2 µg/mL (≈ 9.66 µM)
- MIC ([5]; Gram-negative set, read-out: MIC P. vulgaris DSM-2140): 0.01 µg/mL (≈ 0.0302 µM)
- MIC ([5]; larger panel, read-out: MIC Proteus vulgaris DSM-2140): 0.01 µg/mL (≈ 0.0302 µM)
- MIC [6]: > 6.4 µg/mL
- MIC [7]: 0.4 µg/mL (≈ 1.21 µM)
- MIC [8]: 0.8 µg/mL (≈ 2.41 µM)
- MIC [9]: 0.05 µg/mL (≈ 0.151 µM)
- MIC [10]: 0.013 µg/mL (≈ 0.0392 µM)
- MIC [11]: 0.006 µg/mL (≈ 0.0181 µM)
- MIC [12]: 0.025 µg/mL (≈ 0.0754 µM)
- MIC [13]: 0.1 µg/mL (≈ 0.302 µM)
- MIC [14]: > 6.4 µg/mL
- MIC [15]: 0.1 µg/mL (≈ 0.302 µM)
- MIC [16]: 0.1 µg/mL (≈ 0.302 µM)
- MIC (Bacillus subtilis DSM-10): 0.1 µg/mL (≈ 0.302 µM)
- MIC [17]: > 6.4 µg/mL
- MIC [18]: 0.8 to 1.6 µg/mL (≈ 2.41 to 4.83 µM)
- MIC [19]: 0.2 µg/mL (≈ 0.604 µM)
- MIC [20]: 0.8 to 1.6 µg/mL (≈ 2.41 to 4.83 µM)
- MIC (Pichia anomala DSM-6766): > 6.4 µg/mL
